The subject of series [1] is C57Bl/6J mice fed western diet. The series is described as follows: MTP inhibitor CP-346086 with or without lovastatin or WY14643 in western diet fed mice: plasma/hepatic lipids, AST/ALT. In kind it is in vivo. Conditions: WD 8 weeks. On the procedure:
FIGS. 4a and 4b. Effect of MTP inhibitor (CP-34086) on plasma lipids and lipoproteins in C57Bl/6J mice fed western diet ad libitum for 8 weeks. MTP inhibitor solubilzed in DMSO was administered orally for one week (15 mg/kg/day) along with either DMSO (MTPi), lovastatin (50 mg/kg/day), or WY14643 (10 mg/kg/day). Control mice were gavaged with DMSO only.
FIGS. 5a and 5b. Liver samples from FIG. 4 were used to measure MTP activity (A) and hepatic lipids (B-E). Stars on MPTi group represent comparison between Control and MTPi groups.
Control group (n=4) received daily oral gavage of DMSO alone. MTPi group received 15 mg/kg/day MTP inhibitor CP-346086 (MTPi) once daily. […] Plasma total and HDL cholesterol were unaffected by MTPi. Combined treatment of MTPi and lovastatin decreased plasma LDL cholesterol. […] Next, we measured changes in plasma hepatic enzymes (FIGS. 4G-H). […] These studies indicate that apart from lowering plasma triglyceride, MTPi enhances plasma AST/ALT and these increases can be avoided by the co-administration of lovastatin.

Another series has as its system Reversa mice. As to the method: FIG. 11. Reversa animals were injected with plpC every other day for one week. Lovastatin, T-090317 and WY14643 were administered by oral gavage everyday for 30 days after the first injection. Animals were sacrificed on day 30 and plasma and livers were harvested and analyzed. * represent comparison to PBS injected animals and # represent comparisons to plpC control.
Animals: Mttp^tm2Sgy LdIr^tm1Her Apob^tm2Sgy Tg(Mx1-cre)1Cgn/J mice (Reversa) (stock number 004192) were obtained from Jackson Laboratories. Male reversa mice were used to study the effect of mttp gene deletion on plasma and tissue lipids. These animals are transgenic for apolipoprotein B, LDLR^−/− and floxed at exon 1 of the mttp locus. In addition, these mice express cre recombinase under the control of the Mx1 promoter, which is induced after intraperitoneal injection of polyinosinic polycytidylic ribonucleic acid (plpC—Sigma) in the liver, spleen and intestine. Injection of plpC activates the cre recombinase and deletes the mttp gene in the liver and intestines. Reversa mice were injected with either PBS or plpC. Mice injected with plpC were orally gavaged with DMSO (Sigma-Aldrich D8418), DMSO+Lovastatin (50 mg/kg/day) (Calbiochem 438186), DMSO+T0901317 (50 mg/kg/day) (Calbiochem 575310), or DMSO+WY14643 (10 mg/kg/day) (Calbiochem 681725). Mice injected with plpC were also injected with either PBS or Ω-3 fatty acids (SUNY Downstate Medical Center). All animals were given supplemental treatments for 30 days.
All animals were kept in 07:00-19:00 h lighting schedule. […] Food was withdrawn 16 h before the sacrifice of the mice. On the day of the experiment, mice were anesthetized and blood was collected from the heart. Liver was collected, washed in ice-cold PBS, cut into small pieces and used for lipid extraction, histological staining, to measure different protein activities/quantities and for mRNA analysis. Lipids were extracted from the tissue homogenates following the Bligh and Dyer method. Triglyceride (Infinity TM Triglyceride, TR22421) and total cholesterol (Infinity TM Cholesterol, TR13421) levels in the tissues were determined using commercial kits (Thermo Scientific). Free cholesterol and free fatty acid levels were measured using kits from Wako Chemicals (Germany). Esterified cholesterol was calculated by subtracting the free cholesterol from the total cholesterol.
To determine whether accumulation of hepatic triglyceride and free cholesterol is related to increases in plasma AST/ALT, we sought to reduce these lipids using different chemical compounds of known physiologic effects. Mice injected with plpC were orally gavaged with DMSO, DMSO+Lovastatin (50 mg/kg/day), DMSO+T0901317 (50 mg/kg/day), or DMSO+WY14643 (10 mg/kg/day). Lovastatin (Lova), an HMG-CoA reductase (HMGR) inhibitor, and T0901317 (T0), an LXR agonist, are expected to decrease hepatic free cholesterol by inhibiting endogenous cholesterol synthesis and increasing cholesterol efflux, respectively. WY14643 (WY), a PPARα agonist, increases β-oxidation of fatty acids and lowers hepatic triglycerides.
To evaluate the efficacy of Ω-3 FA in reducing hepatic triglyceride, plpC injected mice were treated with intraperitoneal injection of Ω-3 FA (3 mg/kg/2 day) or Ω-3 FA and Lova.

In a further series the target is T1, MTP (Mus musculus, UniProt O08601).
T1 construct: small pieces (0.1 g) of liver and ˜1-cm segments of proximal small intestine were homogenized; from tissue; host or cells: mouse liver (C57BL/6J; Reversa mice in some experiments); supernatant of ultracentrifuged homogenate
T1 sequence (O08601 22-894): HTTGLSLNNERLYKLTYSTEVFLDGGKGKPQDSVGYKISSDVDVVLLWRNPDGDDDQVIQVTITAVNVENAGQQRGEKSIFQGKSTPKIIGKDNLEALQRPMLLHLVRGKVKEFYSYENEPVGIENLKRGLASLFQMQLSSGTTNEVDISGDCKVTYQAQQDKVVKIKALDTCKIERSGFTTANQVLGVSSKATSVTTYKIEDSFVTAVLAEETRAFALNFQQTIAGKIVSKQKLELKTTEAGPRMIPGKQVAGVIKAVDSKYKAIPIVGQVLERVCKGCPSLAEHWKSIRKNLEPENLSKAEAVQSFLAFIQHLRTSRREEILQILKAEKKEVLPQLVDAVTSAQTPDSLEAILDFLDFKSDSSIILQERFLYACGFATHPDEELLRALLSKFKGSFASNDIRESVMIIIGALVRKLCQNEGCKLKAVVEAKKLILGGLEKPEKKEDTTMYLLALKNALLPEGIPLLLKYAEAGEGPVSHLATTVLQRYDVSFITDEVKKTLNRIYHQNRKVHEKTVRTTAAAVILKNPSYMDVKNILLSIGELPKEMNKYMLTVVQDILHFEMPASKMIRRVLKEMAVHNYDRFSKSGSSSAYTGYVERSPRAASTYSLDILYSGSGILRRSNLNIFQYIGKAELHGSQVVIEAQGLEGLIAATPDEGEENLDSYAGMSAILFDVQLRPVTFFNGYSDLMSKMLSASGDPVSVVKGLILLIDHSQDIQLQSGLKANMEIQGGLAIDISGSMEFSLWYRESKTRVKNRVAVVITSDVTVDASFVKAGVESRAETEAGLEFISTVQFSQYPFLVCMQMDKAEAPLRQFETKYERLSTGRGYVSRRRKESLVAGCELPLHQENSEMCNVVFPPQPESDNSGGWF
T1 sequence (P09103 21-509 partner limits assumed): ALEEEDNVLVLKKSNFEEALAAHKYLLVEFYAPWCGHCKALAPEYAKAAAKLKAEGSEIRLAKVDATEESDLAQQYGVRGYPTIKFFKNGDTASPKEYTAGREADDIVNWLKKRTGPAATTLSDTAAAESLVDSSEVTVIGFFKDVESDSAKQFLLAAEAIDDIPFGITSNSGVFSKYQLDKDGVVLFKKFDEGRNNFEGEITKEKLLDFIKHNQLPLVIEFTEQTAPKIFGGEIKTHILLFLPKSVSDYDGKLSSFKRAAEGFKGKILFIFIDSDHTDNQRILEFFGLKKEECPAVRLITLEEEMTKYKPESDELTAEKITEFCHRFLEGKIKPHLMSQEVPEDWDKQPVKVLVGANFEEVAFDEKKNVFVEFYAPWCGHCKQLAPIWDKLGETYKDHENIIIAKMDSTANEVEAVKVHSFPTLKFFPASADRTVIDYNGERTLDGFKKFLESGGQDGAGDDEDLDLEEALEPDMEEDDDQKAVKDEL
Briefly: Determination of MTP activity in tissues (liver homogenates of treated mice). In kind it is in vivo. Conditions: Reversa mice, plpC vs PBS. On the procedure:
After extensive washes with ice-cold PBS, small pieces (0.1 g) of liver and ˜1-cm segments of proximal small intestine were homogenized with 1 ml of ice-cold 1 mM Tris-HCl, pH 7.6, 1 mM EGTA, and 1 mM MgCl2 buffer in a glass homogenizer. The homogenates were centrifuged (SW55 Ti rotor, 50,000 rpm, 10° C., 1 h), and supernatants were used for MTP assay as described before (41; 42) using a kit (Chylos, Inc.).

Where [2] appears, read: CP-346086 15 mg/kg/day oral 1 week, vs control.
[3] abbreviates: MTP deficient (plpC) Reversa mice, oral 30 days.
Where [4] appears, read: plpC-injected Reversa mice, Lova 50, T0 50, WY 10 mg/kg/day oral or Ω-3 FA 3 mg/kg/2 day ip, vs plpC control.

Consider `O=C(Nc1ccc2c(c1)CCN(Cc1ncn[nH]1)C2)c1ccccc1-c1ccc(C(F)(F)F)cc1` [CP-346086], for which the “plasma AST/ALT” value in series [1] (CP-346086 15 mg/kg/day 1 week ± lovastatin 50 or WY14643 10 mg/kg/day, MTPi vs control, co-drugs vs MTPi) is “significantly enhanced”. Moreover, in series [1] (setting [2]), the “Plasma total and HDL cholesterol” value is “unaffected”; the “plasma total and LDL triglyceride, and LDL cholesterol” value is given as “significantly lower”.
In the case of `O=S(=O)(c1ccccc1)N(CC(F)(F)F)c1ccc(C(O)(C(F)(F)F)C(F)(F)F)cc1` [T0901317], in the series on Reversa mice (setting [3]), the plasma cholesterol result is “no effect” and the plasma triglycerides entry was “no effect”. Further, in the series with Reversa mice (setting [4]), the “hepatic free and total cholesterol” value is “significantly reduced”; the hepatic triglyceride result is reported as “no effect”.
Turning to “polyinosinic polycytidylic ribonucleic acid [plpC]”, at MTP, the “reduction of hepatic MTP activity compared to controls” value is given as ~75%. In the series with Reversa mice (Reversa mice, plpC vs PBS), the “decrease in non-HDL-cholesterol” value is ~40%; the “decrease of plasma total triglyceride and cholesterol” value was determined as 50%; the “increase of hepatic free cholesterol” value was 50%; the “increase of hepatic triglyceride” value is 2 fold. For the same compound, in the series with Reversa mice (Reversa mice, plpC vs PBS), the “increase of plasma ALT and AST” value is given as 2-3 fold; the “reduction of hepatic cholesteryl esters (CE)” value is ~30%.

Values taken from patent publication US8455523B2, “Compositions and methods for treating hyperlipidemias” (The Research Foundation of State University of New York, priority 2010, dated 2013).
